Experimental data taken from US20260345584A1, “METHODS AND PHARMACEUTICAL COMPOSITIONS FOR TREATING CHEMOTHERAPY-INDUCED PERIPHERAL NEUROPATHY WITH EG5 INHIBITORS” (UNIVERSITY OF MIAMI, priority 2023, published 2026).

Assays:
[1] = tested on: microtubule detyrosination in keratinocytes; experiment: GluTub immunofluorescence of detyrosinated microtubules in zebrafish caudal fin keratinocytes; type: in vivo
Protocol: The stock solution was divided into 20-30 μl aliquots and stored at −20 °C until use (maximal 6 months). Immediately prior to use, paclitaxel was diluted in Ringer's solution and added to dechorionated larval zebrafish. The larval fish were placed individually or in small groups into wells of a 12-well plate containing the treatment solutions. The control group was 0.05% DMSO. Plates were incubated at 28.5 °C and protected from light. Treatment lengths are indicated in the Drawings, Description of the Drawings, and Examples where appropriate. […] EMD534085, Eg5 inhibitor (MedChemExpress, Cat. No. HY-15000) was diluted in 100% DMSO to make a 10 mM stock solution and stored at −20 °C. […] The solutions were exchanged every 48 hr.
Larval fish were transferred into […] glass vials and fixed in 4% paraformaldehyde (PFA)/1× Phosphate-buffered saline (PBS) for 1.5 hr at room temperature, with gentle rocking. Following a 5-minute incubation in 1×PBS+0.1% Tween-20 (PBST), zebrafish were permeabilized in 1×PBS+0.1% Triton X-100 for 10-30 min. Larval fish were transferred into 2 ml reaction tubes and incubated in blocking buffer (1×PBST+5% BSA) for 30 min at room temperature, with rocking. Larval fish were further incubated overnight in antibody solution (Millipore Sigma, Cat. No. AB3201, 1:300 rabbit anti-GluTub; Sigma, Cat No. T6793, 1:500 mouse anti-acetylated tubulin) in blocking buffer at 4 °C, on a rotator. The next morning, larval fish were transferred into 6-well plates and washed 4×15 min in 1×PBST at room temperature, with rocking. This was followed by incubation in secondary antibody (goat anti-rabbit Cy5, Abcam, Cat. No. ab97077; goat anti-mouse Cy3, Abcam, Cat. No. ab97035) and 1:10,000 Hoechst 33342 (ThermoFisher Scientific, Cat. No. 62249, 20 mM solution) in blocking buffer for 1 hr at room temperature, with rocking. Fish were covered to avoid bleaching. […]
Fluorescence intensities were measured using the Imaris MATLAB plugin or Fiji. A line was typically placed over the region of interest and the fluorescence automatically quantified. The values were normalized to nuclear (Hoechst33342) fluorescence intensities within the same fish and region to obtain an intensity ratio.
Stabilized microtubules undergo a modification whereby the terminal tyrosine residue was removed, leading to detyrosination (dMT) (Roll-Mecak et al., 2020, Developmental cell 54: 7-20), which was associated with particularly long-term stabilized microtubule populations (Khawaja et al., 1988, The Journal of cell biology 106: 141-149). Exposure of the penultimate glutamate residue can be detected using a GluTub antibody. […]

mmp13a = experiment: qPCR mmp13 expression, whole larvae; type: in vivo, zebrafish; details: wildtype, 48 hr paclitaxel
Protocol: Zebrafish larvae (AB/Nacre) were treated in pools of ~20-30 larvae per treatment per biological replicate (BR); each BR consisted of embryos from distinct parents. Larvae were collected into 1.5 ml reaction tubes post-treatment and RNA extraction was performed using the rNeasy Plus Micro kit (Qiagen, Cat. No. 74034). cDNA was synthesized from ~300 ng total RNA using the Superscript IV VILO kit (Thermo Fisher, Cat. No. 11756050). Primers in target genes were designed wherein primers annealed in two exons separated by one or several large introns that could not be amplified with the selected PCR settings, to avoid genomic DNA contamination. Quantitative PCR was performed with the Applied Biosystems QuantStudio 3 using PowerUp SYBR Green (ThermoFisher, Cat No. A25741). Amplification signals for expressed target genes were normalized to zebrafish 18S rRNA signals. qPCR conditions were used as follows: 95 °C for 10 minutes, 40 cycles of 95 °C for 15 seconds, 50 °C for 30 seconds, 72 °C for 30 seconds. Each biological replicate was run in quadruplicate. Data were presented as relative expression compared to control using the delta-vdelta Ct (2^^-ΔΔCt) method.
Stretching was performed after 96 hr treatment, followed by 2 hr post-stretch fixation, and staining for detection of acetylated tubulin in axons.

## CN(C)CCNC(=O)NC[C@H]1CC[C@@H]2[C@H](O1)c1cc(C(F)(F)F)ccc1N[C@H]2c1ccccc1 [EMD534085]
[1]; EMD534085-treated animals, 96 hr
  microtubule detyrosination with Eg5 inhibition: not modified when animals were treated with EMD534085
[1]; EMD534085 co-administered with 100 nM and 22 μM paclitaxel
  effect on microtubule fasciculation and detyrosination: rescued microtubule fasciculation but not detyrosination

## CC(=O)O[C@H]1C(=O)[C@@]2(C)[C@H]([C@H](OC(=O)c3ccccc3)[C@]3(O)C[C@H](OC(=O)[C@H](O)[C@@H](NC(=O)c4ccccc4)c4ccccc4)C(C)=C1C3(C)C)[C@]1(OC(C)=O)CO[C@@H]1C[C@@H]2O [paclitaxel]
mmp13a
  mmp13 expression: increased mmp13 expression
